Results published in ChEMBL document CHEMBL4715783, “Insights into tyrosinase inhibition by compounds isolated from Greyia radlkoferi Szyszyl using biological activity, molecular docking and gene expression analysis” (Bioorg Med Chem, 2016).
In brackets after ≈: the same amount, converted by molar mass. Activity calls are given as the source filed them. No cut-off for these calls is given here.

Legend:
Mushroom tyrosinase [1] = target: T1, Mushroom tyrosinase (Agaricus bisporus, UniProt O42713+Q00024+C7FF04+C7FF05); assay: Inhibition of monophenolase activity of mushroom tyrosinase using L-Tyrosine substrate incubated for 10 mins followed by substrate addition and measured for 20 mins
B16-F1 = assay: Inhibition of melanin production in C57BL/6J mouse B16-F1 cells incubated for 5 days; assay type: functional, cell-based; conditions: B16-F1, 120 h
B16-F10 [2] = assay: Inhibition of melanin production in mouse B16-F10 cells at 100 ug/ml relative to control; assay type: functional
B16-F10 [3] = assay: Cytotoxicity against mouse B16-F10 cells assessed as reduction in cell viability incubated for 72 hrs by XTT assay; assay type: cell-based; conditions: B16-F10, 72 h
[4] = target: T2, Mushroom tyrosinase (Agaricus bisporus) (UniProt O42713+Q00024+C7FF04+C7FF05); assay: Inhibition of monophenolase activity of mushroom tyrosinase at 100 uM relative to control
B16-F10 [5] = assay: Inhibition of melanin production in mouse B16-F10 cells at 12.5 to 25 ug/ml relative to control; assay type: functional; conditions: dose 12.5-25 µg/ml
Mushroom tyrosinase [6] = target: T1, Mushroom tyrosinase; assay: Inhibition of monophenolase activity of mushroom tyrosinase using L-Tyrosine substrate incubated for 5 mins followed by substrate addition and measured for 30 mins by colorimetry
B16-F10 [7] = assay: Inhibition of melanin production in mouse B16-F10 cells at 6.25 ug/ml relative to control; assay type: functional
Mushroom tyrosinase [8] = target: T1, Mushroom tyrosinase; assay: Inhibition of monophenolase activity of mushroom tyrosinase using L-Tyrosine substrate incubated for 10 mins followed by substrate addition and measured for 15 mins
cells = conditions: Mus musculus, B16-BL6, 120 h
Description: Cytotoxicity against mouse B16-BL6 cells assessed as reduction in cell viability incubated for 5 days by MTT assay

B16-F10 [9] = assay: Inhibition of melanin production in mouse B16-F10 cells at 21.42 ug/ml relative to control; assay type: functional, cell-based; conditions: dose 21.42 µg/ml
Mushroom tyrosinase [10] = target: T1, Mushroom tyrosinase; assay: Inhibition of monophenolase activity of mushroom tyrosinase using L-Tyrosine substrate incubated for 30 mins by spectrophotometry
B16-F10 [11] = assay: Inhibition of melanin production in mouse B16-F10 cells at 25 ug/ml relative to control; assay type: functional
[12] = target: T2, Mushroom tyrosinase (Agaricus bisporus); assay: Inhibition of monophenolase activity of mushroom tyrosinase assessed as reduction in dopachrome formation using L-Tyrosine substrate incubated for 30 mins by spectrophotometry relative to control
B16-F10 [13] = assay: Inhibition of melanin production in mouse B16-F10 cells at 12.5 ug/ml relative to control; assay type: functional
[14] = Solubility of compound in water at >[…] uM; assay type: physicochemical; conditions: buffer; dose >50 µM
Mushroom tyrosinase [15] = target: T1, Mushroom tyrosinase; assay: Inhibition of diphenolase activity of mushroom tyrosinase assessed as reduction in dopachrome formation using L-DOPA substrate incubated for 30 mins
Mushroom tyrosinase [16] = target: T1, Mushroom tyrosinase; assay: Inhibition of monophenolase activity of mushroom tyrosinase
[17] = Inhibition of monophenolase activity of tyrosinase in C57BL/6 mouse melan-a cells incubated for 72 hrs by bradford method

## Cc1c(O)c(C)c2c(c1O)C(=O)C[C@@H](c1ccccc1)O2 [DEMETHOXYMATTEUCINOL]
Mushroom tyrosinase [1]
  IC50: 97.6 µM

## OC[C@H]1O[C@@H](Oc2ccc(O)cc2)[C@H](O)[C@@H](O)[C@@H]1O [ARBUTIN]
B16-F1
  IC50: 122 µM
B16-F10 [2]
  inhibition at 100 µg/mL: 78%
B16-F10 [3]
  IC50: 391 µM

## O=C1C[C@@H](c2ccc(O)cc2)Oc2cc(O)cc(O)c21
[4]
  inhibition: 2.8%

## O=C(CCc1ccccc1)c1c(O)cc(O)cc1O
B16-F10 [5]
  inhibition (INH): 25%
Mushroom tyrosinase [6]
  IC50: 68.48 µM
B16-F10 [3]
  IC50: 219 µM

## COc1cc(O)c(C(=O)CCc2ccccc2)c(O)c1
Mushroom tyrosinase [6]
  IC50: > 200 µM
B16-F10 [7]
  inhibition at 6.25 µg/mL: 10%
B16-F10 [3]
  IC50: 373 µM

## O=C(/C=C/c1ccc(O)cc1O)c1ccc(O)cc1O
Mushroom tyrosinase [8]
  IC50: 0.06 µM

## O=c1c(-c2ccc(O)cc2)coc2cc(O)cc(O)c12 [GENISTEIN]
Mushroom tyrosinase [6]
  IC50: > 200 µM
cells
  IC50: 4.18 µg/mL (≈ 15.5 µM)
B16-F10 [9]
  inhibition: inactive
B16-F10 [3]
  IC50: 79.2 µM
Mushroom tyrosinase [10]
  IC50: 822 µM

## CC(C)=CCc1c(O)cc(O)c2c1O[C@H](c1ccccc1)CC2=O [GLABRANIN]
Mushroom tyrosinase [1]
  IC50: 80.6 µM

## O=c1c(O)c(-c2ccccc2)oc2cc(O)cc(O)c12 [GALANGIN]
B16-F10 [11]
  inhibition at 25 µg/mL: 40%
[12]
  inhibition: 20%
B16-F10 [13]
  inhibition at 12.5 µg/mL: 30%
[14]
  solubility: Insoluble
Mushroom tyrosinase [6]
  IC50: 420.37 µM
Mushroom tyrosinase [15]
  IC50: 101 µM
B16-F10 [3]
  IC50: > 200 µM

## O=C1C[C@@H](c2ccccc2)Oc2cc(O)cc(O)c21 [PINOCEMBRIN]
B16-F10 [13]
  inhibition at 12.5 µg/mL: 8%
Mushroom tyrosinase [6]
  IC50: > 200 µM
B16-F10 [3]
  IC50: 30.1 µM

## CC(C)=CCc1c(O)ccc(C(=O)/C=C/c2ccc(O)cc2O)c1O [MORACHALCONE A]
Mushroom tyrosinase [16]
  IC50: 0.14 µM

## COc1cc(O)c(C(=O)[C@@H]2[C@H](CC=C(C)C)C(C)=CC[C@H]2c2ccccc2)c(O)c1 [PANDURATIN A]
[17]
  IC50: 8.2 µM
